The target in assay [1] is T1, Signal transducer and activator of transcription 5A (Homo sapiens, UniProt P42229).
T1 sequence (P42229 whole entry): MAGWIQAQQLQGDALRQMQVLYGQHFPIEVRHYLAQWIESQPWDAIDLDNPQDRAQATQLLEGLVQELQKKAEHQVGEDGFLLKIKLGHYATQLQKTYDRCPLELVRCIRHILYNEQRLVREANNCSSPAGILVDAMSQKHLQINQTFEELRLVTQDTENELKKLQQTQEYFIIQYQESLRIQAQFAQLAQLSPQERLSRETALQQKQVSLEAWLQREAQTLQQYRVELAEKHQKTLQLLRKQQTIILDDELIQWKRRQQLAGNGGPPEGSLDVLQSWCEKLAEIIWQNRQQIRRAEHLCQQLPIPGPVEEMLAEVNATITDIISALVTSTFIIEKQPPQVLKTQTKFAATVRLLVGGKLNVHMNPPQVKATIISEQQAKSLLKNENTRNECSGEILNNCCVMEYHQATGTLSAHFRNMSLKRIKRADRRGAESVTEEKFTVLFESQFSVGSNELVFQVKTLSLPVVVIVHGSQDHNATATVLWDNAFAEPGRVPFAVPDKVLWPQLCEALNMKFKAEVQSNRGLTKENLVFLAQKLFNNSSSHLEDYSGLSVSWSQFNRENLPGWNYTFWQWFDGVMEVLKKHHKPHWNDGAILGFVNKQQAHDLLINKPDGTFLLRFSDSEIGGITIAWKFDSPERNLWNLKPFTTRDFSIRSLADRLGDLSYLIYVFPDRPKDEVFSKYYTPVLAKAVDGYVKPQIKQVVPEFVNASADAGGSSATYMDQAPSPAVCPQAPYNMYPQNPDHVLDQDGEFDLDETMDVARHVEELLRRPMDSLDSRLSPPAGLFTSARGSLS
Description: Displacement of 5-carboxyfluorescein-GY(PO3H2)LVLDKW from STAT5A SH2 domain (unknown origin) pretreated for 1 hr followed by fluorescent tracer addition after 1 hr by fluorescence polarization assay. A general note: Polarisation of emitted light reports the rotation of a fluorescent probe.

Assay [2] has as its target T2, Signal transducer and activator of transcription 5B (Homo sapiens, UniProt P51692).
T2 sequence (P51692 whole entry): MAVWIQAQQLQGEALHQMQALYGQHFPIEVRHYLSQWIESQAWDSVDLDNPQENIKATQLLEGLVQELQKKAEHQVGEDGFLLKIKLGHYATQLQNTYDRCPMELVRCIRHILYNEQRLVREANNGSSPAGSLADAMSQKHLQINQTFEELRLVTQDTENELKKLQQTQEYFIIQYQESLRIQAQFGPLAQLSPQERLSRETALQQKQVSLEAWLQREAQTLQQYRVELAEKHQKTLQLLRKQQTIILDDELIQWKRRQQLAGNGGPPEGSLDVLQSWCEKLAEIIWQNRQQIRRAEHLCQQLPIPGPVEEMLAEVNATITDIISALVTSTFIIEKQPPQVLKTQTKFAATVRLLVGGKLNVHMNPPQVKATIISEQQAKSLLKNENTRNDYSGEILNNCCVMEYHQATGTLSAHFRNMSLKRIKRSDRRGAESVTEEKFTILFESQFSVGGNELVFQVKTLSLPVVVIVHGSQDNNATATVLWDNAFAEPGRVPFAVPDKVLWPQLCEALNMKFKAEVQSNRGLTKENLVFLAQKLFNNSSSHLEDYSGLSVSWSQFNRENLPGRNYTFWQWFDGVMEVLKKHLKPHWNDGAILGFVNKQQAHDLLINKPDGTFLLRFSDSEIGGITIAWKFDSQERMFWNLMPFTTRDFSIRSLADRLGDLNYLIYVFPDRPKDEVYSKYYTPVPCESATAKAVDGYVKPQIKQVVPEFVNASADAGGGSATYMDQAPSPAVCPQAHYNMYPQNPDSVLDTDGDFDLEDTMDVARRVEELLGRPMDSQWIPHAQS
Briefly: Displacement of 5-carboxyfluorescein-GY(PO3H2)LVLDKW from STAT5B SH2 domain (unknown origin) pretreated for 1 hr followed by fluorescent tracer addition after 1 hr by fluorescence polarization assay.

Assay [3] is filed under the species Homo sapiens. Briefly: Selectivity factor, ratio of IC50 for displacement of 5-carboxyfluorescein-GY(PO3H2)LVLDKW from STAT5A SH2 domain (unknown origin) to IC50 for displacement of 5-carboxyfluorescein-GY(PO3H2)LVLDKW from STAT5B SH2 domain (unknown origin).

In general, IC50 refers to the concentration that gives 50% inhibition. For `O=C(COc1ccc2cc(C(=O)Nc3ccc(Cl)cc3)ccc2c1)NCc1ccc(OP(=O)(O)O)c(OP(=O)(O)O)c1`, the IC50 in assay [1] was determined as 8.9 µM; in assay [2] it was 0.27 µM. In addition, the Ratio IC50 in assay [3] stood at 33.
For `O=C(COc1ccc(C(=O)Nc2ccc(F)cc2)cc1)NCc1ccc(OP(=O)(O)O)c(OP(=O)(O)O)c1`, in that order: 8.3 µM, 0.35 µM and 24.
`O=C(COc1ccc(C(=O)Nc2ccccc2)cc1)NCc1ccc(OP(=O)(O)O)c(OP(=O)(O)O)c1`: the IC50 in assay [1] is 9.7 µM; in assay [2], 0.28 µM. In assay [3], the Ratio IC50 was determined as 35.
Regarding `O=C(COc1ccc2cc(C(=O)Nc3cccc(F)c3)ccc2c1)NCc1ccc(OP(=O)(O)O)c(OP(=O)(O)O)c1`, the IC50 in assay [1] stood at 8.4 µM; in assay [2], 0.234 µM. In addition, the Ratio IC50 in assay [3] worked out at 36.
For the compound `O=C(COc1ccc2cc(C(=O)Nc3ccc(F)cc3)ccc2c1)NCc1ccc(OP(=O)(O)O)c(OP(=O)(O)O)c1`, the IC50 is 7.2 µM in assay [1] and 0.22 µM in assay [2]. For the same compound, the Ratio IC50 in assay [3] is 33.
In the case of `O=C(COc1ccc(C(=O)Nc2ccc(Br)cc2)cc1)NCc1ccc(OP(=O)(O)O)c(OP(=O)(O)O)c1`, the IC50 in assay [1] came out at 8.6 µM; in assay [2], 0.39 µM. The Ratio IC50 in assay [3] is 22.
On to `O=C(COc1ccc(C(=O)Nc2cccc(Br)c2)cc1)NCc1ccc(OP(=O)(O)O)c(OP(=O)(O)O)c1`, for which the results for the IC50 in assay [1] and in assay [2] were 10.5 µM and 0.66 µM, respectively. Moreover, the Ratio IC50 in assay [3] stood at 16.
With `O=C(COc1ccc2cc(C(=O)Nc3ccc(Br)cc3)ccc2c1)NCc1ccc(OP(=O)(O)O)c(OP(=O)(O)O)c1`, the values for the 50% inhibitory concentration (IC50) in assay [1] and in assay [2] were 7.6 µM and 0.24 µM, respectively. Besides, the Ratio IC50 in assay [3] stood at 32.
Take `O=C(COc1ccc(C(=O)Nc2cccc(Cl)c2)cc1)NCc1ccc(OP(=O)(O)O)c(OP(=O)(O)O)c1`: the IC50 in assay [1] amounted to 9.1 µM; in assay [2], 0.46 µM. Moreover, in assay [3], the Ratio IC50 came out at 20.
The matching figures for `O=C(COc1ccc2cc(C(=O)Nc3cccc(Br)c3)ccc2c1)NCc1ccc(OP(=O)(O)O)c(OP(=O)(O)O)c1`: 10.6 µM, 0.29 µM and 37.
Take `O=C(COc1ccc2cc(C(=O)Nc3cccc(Cl)c3)ccc2c1)NCc1ccc(OP(=O)(O)O)c(OP(=O)(O)O)c1`: the IC50 in assay [1] came to 7.3 µM; in assay [2], 0.26 µM. For the same compound, in assay [3], the Ratio IC50 was found to be 28.
The matching figures for `O=C(COc1ccc(C(=O)Nc2cccc(F)c2)cc1)NCc1ccc(OP(=O)(O)O)c(OP(=O)(O)O)c1`: 11.9 µM, 0.62 µM and 19.
Take `O=C(COc1ccc(C(=O)Nc2ccc(Cl)cc2)cc1)NCc1ccc(OP(=O)(O)O)c(OP(=O)(O)O)c1`: the IC50 in assay [1] was found to be 7.4 µM; in assay [2], 0.33 µM. Further, the Ratio IC50 in assay [3] was 22.
